Reference: patent publication US6482814B1, “Biocidal composition and its use” (Avecia Limited, priority 1998, dated 2002)

Key:
Alternaria alternata [1] = experiment: Determination of FIC (10x10 matrix, isobologram); type: cell-based; settings: component of the combination BBIT + ZO
Source text: (§1) The composition of the present invention has antimicrobial properties and has been found particularly effective against deteriogens for plastics materials, especially in soil burial applications. […] The FIC is the ratio of the amount of each component in the composition relative to its Minimum Inhibitory Concentration (MIC) when used alone. […] When the sum of the FIC values is below one, the mixture is synergistic and when the sum of the FIC values is greater than one, the mixture is antagonistic. The FIC values are preferably determined by constructing an isobologram wherein each component in a matrix array is varied stepwise from a concentration in excess of the MIC down to zero ppm.
A matrix was constructed in a 10×10 array in microtitre wells wherein the concentration of each chemical was varied stepwise by serial dilution from a concentration of twice the MIC down to zero. As each microtitre plate contains only 96 wells the combination of the two compounds making up the extreme concentrations (highest and lowest) were omitted. […]
The presence or absence of growth was determined visually after incubation. […] From the matrix an isobologram was created and the FIC for each chemical of the composition calculated. […]
(§2) The FIC values for N-n-butyl-1,2-benzisothiazolin-3-one and the 2:1 zinc complex of 1-hydroxypyridine-2-thione were determined in similar manner to that described in Example 1.

Aureobasidium pullulans = experiment: Determination of MIC (microtitre doubling dilution), fungi; type: cell-based; settings: chemical alone; visual growth after 48 hours at 25° C.
Experimental: (§3) Bacteria were grown to stationary phase (18 hours) in nutrient broth to give approximately 10^9 colony forming units per ml (CFU/ml). A 0.1% (v/v) inoculum was used to seed fresh medium and 100 μl was then added to each well of a microtitre plate, except for the first well which contained 200 μl. By using a doubling dilution technique, the concentration of the chemical under investigation was varied in each well along the ordinate axis. The presence or absence of bacterial growth was determined by visual inspection after 24 hours incubation at 37° C.
(§4) The presence or absence of fungal growth was determined by visual inspection after incubation for 48 hours at 25° C.

Aspergillus niger [2] = experiment: as above; type: cell-based; settings: chemical alone; visual growth after 48 hours at 25° C.
Experimental: as §3, §4

Alternaria alternata [3] = experiment: as above; type: cell-based; settings: chemical alone; visual growth after 48 hours at 25° C.
Experimental: as §3, §4

Pseudomonas aeruginosa [4] = experiment: Determination of MIC (microtitre doubling dilution), bacteria; type: cell-based; settings: chemical alone; visual growth after 24 hours at 37° C.
Experimental: as §3

[5] = tested on: mixed inoculum of Aureobasidium pullulans, Fusarium enicillium funicularum, Scopulariopsis brevicaulis and Streptoverticillium waksmanii; experiment: Soil burial of plasticised PVC strips, weight loss; settings: PVC strip, 3000 ppm
Experimental: Polvinylchioride sheets were prepared by callendaring the following mixture at 160° C.
100 parts Polyvinylchloride (Evipol SH65/20 ex EVC)
25 parts Dioctylphthalate (ex BP Chemicals)
25 parts Dioctyladipate (ex BP Chemicals)
2 parts Mixed Ca/Zn salt Lankromark LN138 as stabiliser (ex Lankro Chem)
3 parts Lankroflex ED6 as stabiliser/plasticiser (ex Lankro Chem)
5 parts Calcium stearate (ex Aldrich)
0.2 parts Stearic acid (ex Aldrich)
Sheets were fabricated with and without a 1:1 mixture of N-n-butyl-1,2-benzisothiazolin 3-one (BBIT) and the 2:1 zinc complex of 1-hydroxypyridine-2-thione (ZO). […]
Strips of the PVC (8 parts, 12.5×5 cm) were weighed to 4 decimal places, folded and buried in potting compost (John Innes No 2) in a plastic humidity chamber. The compost was sprayed with a mixed inoculum of Aureobasidium pullulans, Fusarium enicillium funicularum, Scopulariopsis brevicaulis and Streptoverticillium waksmanii and incubated at 25° C. The PVC strips were examined at 4 weeks intervals when they were cleaned, dried and weighed. The weight loss is recorded in Table 5 below.

Pseudomonas aeruginosa [6] = experiment: Determination of FIC (10x10 matrix, isobologram); type: cell-based; settings: for Optimal FIC Concentration: component of the combination BBIT + ZO; for concentration in the optimal composition: component of the combination BBIT + ZHMT
Source text: as §1
(§5) A matrix was constructed in a 10×10 array in microtitre wells wherein the concentration of each chemical was varied stepwise by serial dilution from a concentration of twice the MIC down to zero. As each microtitre plate contains only 96 wells the combination of the two compounds making up the extreme concentrations (highest and lowest) were omitted. Each mixture (100 μl) was added to the plate so that the total volume was maintained at 200 μl. By transferring 100 μl from each well to the adjacent well containing 100 μl nutrient the concentration of the chemical was reduced from twice the MIC to zero in a stepwise manner.
(§6) The presence or absence of growth was determined visually after incubation. The plates containing bacteria were incubated for 16-24 hours at 37° C. and the plates containing fungi were incubated for 40-72 hours at 25° C. From the matrix an isobologram was created and the FIC for each chemical of the composition calculated. The FIC is the ratio of the concentration of chemical which inhibits growth when applied as a combination of chemicals relative to the MIC for that chemical when applied alone.
(§7) The FIC values for the combination of N-n-butyl-1,2-benzisothiazolin-3-one (BBIT) and the 2:1 zinc complex of 3-hydroxy-4-methylthiazol-2(3H)-thione against a bacterium and a fungus are recorded in Tables 2 and 3, respectively.
as §2

Aspergillus niger [7] = experiment: Determination of FIC (10x10 matrix, isobologram); type: cell-based; settings: for Optimal FIC Concentration: component of the combination BBIT + ZO; for concentration in the optimal composition: component of the combination BBIT + ZHMT
Source text: as §1, §5, §6, §7, §2

**Q.** `[O-]n1ccccc1=S.[O-]n1ccccc1=S.[Zn+2]` [ZO, 2:1 zinc complex of 1-hydroxypyridine-2-thione] was tested. Which “Optimal FIC Concentration” value (Alternaria alternata [1]) did it give?
**A.** Its value is 22 ppm.

**Q.** What about the MIC (Aureobasidium pullulans) of the same compound?
**A.** Its MIC is 1.5 ppm.

**Q.** And the MIC (Aspergillus niger [2])?
**A.** Its MIC is 11 ppm.

**Q.** And the MIC (Alternaria alternata [3])?
**A.** Its MIC is 55 ppm.

**Q.** And the MIC (Pseudomonas aeruginosa [4])?
**A.** The MIC was 33.5 ppm.

**Q.** What about the “Weight Loss” value ([5]; 0 weeks) of the same compound?
**A.** Its value is 0%.

**Q.** What about the “Weight Loss” value ([5]; 4 weeks) of the same compound?
**A.** Its value is 0.3%.

**Q.** And the “Weight Loss” value ([5]; 8 weeks)?
**A.** The value was 0.8%.

**Q.** What about the “Weight Loss” value ([5]; 12 weeks) of the same compound?
**A.** Its value is 1.5%.

**Q.** And the “Weight Loss” value ([5]; 16 weeks)?
**A.** Its value is 2.3%.

**Q.** And the “Optimal FIC Concentration” value (Pseudomonas aeruginosa [6])?
**A.** Its value is 16.4 ppm.

**Q.** And the “Optimal FIC Concentration” value (Aspergillus niger [7])?
**A.** The value was 8.3 ppm.

**Q.** `Cc1csc(=S)n1[O-].Cc1csc(=S)n1[O-].[Zn+2]` [ZHMT, 2:1 zinc complex of 3-hydroxy-4-methylthiazol-2(3H)-thione] was tested. Which MIC (Aspergillus niger [2]) did it give?
**A.** The MIC was 16 ppm.

**Q.** What about the MIC (Pseudomonas aeruginosa [4]) of the same compound?
**A.** Its MIC is 16 ppm.

**Q.** And the “concentration in the optimal composition” value (Pseudomonas aeruginosa [6])?
**A.** The value was 10.6 ppm.

**Q.** What about the “concentration in the optimal composition” value (Aspergillus niger [7]) of the same compound?
**A.** The value was 5.9 ppm.

**Q.** What does the source list for `CCCCn1sc2ccccc2c1=O` [BBIT, N-n-butyl-1,2-benzisothiazolin-3-one]?
**A.** Optimal FIC Concentration (Alternaria alternata [1]): 22 ppm; MIC (Aureobasidium pullulans): 3 ppm; MIC (Aspergillus niger [2]): 44.5 ppm; MIC (Alternaria alternata [3]): 67 ppm; MIC (Pseudomonas aeruginosa [4]): 444 ppm; Weight Loss ([5]; 0 weeks): 0%; Weight Loss ([5]; 4 weeks): 1.2%; Weight Loss ([5]; 8 weeks): 2.8%; Weight Loss ([5]; 12 weeks): 5.6%; Weight Loss ([5]; 16 weeks): 8.1%; concentration in the optimal composition (Pseudomonas aeruginosa [6]): 111 ppm; Optimal FIC Concentration (Pseudomonas aeruginosa [6]): 111 ppm; concentration in the optimal composition (Aspergillus niger [7]): 17.4 ppm; Optimal FIC Concentration (Aspergillus niger [7]): 5.3 ppm
